In patent publication EP3246013A1, “INHIBITION OF THE ADHESION OF MICROORGANISMS PATHOGENATED BY A STEARATE AND/OR SORBITAN SUCROSE IN THE COSMETIC TREATMENT OF ATOPIC DERMATITIS” (priority 2012, dated 2014):

Key:
S. aureus = assay: Ex vivo inhibition of adhesion of S. aureus on human corneocytes (D-Squame discs), crystal violet staining and image counting; type: cell-based, Staphylococcus aureus; details: for Inhibition de l'adhésion de S. aureus (%) Essai 1 / Inhibition de l'adhésion de S. aureus (%) Essai 2: human corneocytes; for Inhibition de l'adhésion de S. aureus (%) Essai 1: trial 1; for Inhibition de l'adhésion de S. aureus (%) Essai 2: trial 2
Experimental: Afin de corroborer les résultats obtenus in vitro, un test d'adhésion ex vivo sur des cornéocytes humains a été mis au point d'après la méthode réalisée chez le chien (McEwan et al., 2005).
La souche clinique de S. aureus (CIP 65-8) a été prélevée sur un patient, au sein du laboratoire de bactériologie clinique de l'hôpital de la Timone à Marseille.
La souche de S. aureus est inoculée dans 10 ml de milieu 'Nutrient Broth N° 2' (Oxoid) et incubée sous agitation à 37°C pendant 12 heures. Les bactéries sont collectées par centrifugation et le culot bactérien est remis en suspension dans un tampon phosphate PBS. La population bactérienne est ajustée approximativement à 10^6 CFU/ml avec de l'eau osmosée.
Des zones cibles sont délimitées sur chaque bras d'un volontaire humain. Pour chaque zone, les débris cutanés sont éliminés grâce à 5 « pré-strippings » successifs avec des disques Sellotape™Original (diamètre 22 mm). Les cornéocytes sont ensuite collectés sur chaque zone cible à l'aide de disques adhésifs D-Squame™ (diamètre 22 mm) et d'un applicateur de disque D-Squame réglé à la pression de 150 g/cm^2.
Les disques sont ensuite placés dans des boîtes de Pétri, de diamètre 35 mm. Les disques sont alors recouverts par 0,5 ml d'eau ou 0,5 ml de la solution de S. aureus à 10^6 CFU/ml, contenant le composé polyhydroxylé à tester, à raison de trois zones pour chacun d'entre eux.
Les composés polyhydroxylés testés avec ce protocole expérimental sont : • le xylitol, à une concentration finale de 0,5%; • le sucrose stéarate HLB 16 (sucrose monostéarate, SURFHOPE C1816,), à une concentration finale de 1%, • le sucrose laurate monoester (SURFHOPE C1216), à une concentration finale de 0,1 %, • le polysorbate 60, à une concentration finale de 0,1%, • le polysorbate 60, à une concentration finale de 1%, • le polysorbate 20, à une concentration finale de 0,1%,
Toutes les solutions sont préparées dans de l'eau et mises en contact avec S. aureus à température ambiante 45 min avant le début de l'expérience d'adhésion. Les boites sont ensuite incubées à 37°C pendant 60 min. Les disques sont alors rincés avec de l'eau osmosée, ce qui permet d'éliminer les bactéries n'ayant pas adhéré aux cornéocytes. Les bactéries ayant adhéré aux cornéocytes humains sont alors colorées par du cristal violet oxalaté pendant 10 secondes. Les disques sont enfin rincés avec de l'eau osmosée, placés sur une lame de microscope et séchés à l'air libre pendant 24 h.
Les images des bactéries adhérentes sont acquises à l'aide d'un microscope Olympus BX 53 couplé à une caméra numérique. Les images collectées sont ensuite analysées par le logiciel UTHSCSA Image Tool (Reindeer Graphics Inc.). Le nombre de bactéries par disque est calculé par une moyenne arithmétique de 10 à 12 images, ce qui correspond à la surface d'environ 100 cornéocytes. Les comparaisons entre différentes moyennes sont effectuées avec le logiciel Statgraphics Plus (Manugistics Inc.).

Staphylococcus aureus = assay: In vitro inhibition of adhesion of S. aureus on a solid support (glass chamber slide), crystal violet staining and automatic counting; type: cell-based; details: for Nombre de cellules par champ: adhesion to glass slide, mean of three fields ± SD, water control 99 ± 11; for inhibition de l'adhésion (% par rapport au témoin eau): glass slide
Experimental: Le protocole suivant est mis en oeuvre : • Une préculture de S. aureus issue du laboratoire de bactériologie clinique de l'hôpital de la Timone (CIP 65-8) est réalisée dans du milieu 'Nutrient Broth N° 2' (Oxoid), pendant 12h, à 37°C; • La culture est centrifugée à 9 000 g, pendant 10 min et le culot bactérien est remis en suspension dans un tampon phosphate (PBS); • A partir de cette suspension, une dilution au 1/50 est réalisée dans une solution aqueuse ou une solution aqueuse contenant le composé polyhydroxylé à tester. Il s'agit soit du xylitol, soit du sucrostéarate HLB 16 (SURFHOPE™ C1816); • Les bactéries sont préincubées en présence du composé polyhydroxylé à tester pendant 45 min, à 37 °C; • Le mélange (100 µl) est ensuite déposé dans un puits d'une lame cytologique en verre, de surface fixe (0,8 cm^2) et délimitée par des parois, c'est-à-dire une lame adaptée à la culture cellulaire (Chamber Slide System, Labtek); • Les cultures bactériennes sont ensuite incubées à 37°C, pendant 60 min et ultérieurement rincées délicatement avec de l'eau ultra pure, ce qui permet d'éliminer les bactéries n'ayant pas adhéré à la surface du puits de la lame; • Les bactéries ayant adhéré dans chaque puits sont par la suite colorées par le cristal violet pendant 10 secondes, puis rincées et séchées pendant 12h, à 25°C; • Les bactéries sont enfin observées à l'aide d'un microscope optique, par grossissement x 1000, en immersion, les champs étant parfaitement homogènes; • Un comptage automatique des bactéries dans chaque puits est finalement réalisé à l'aide d'un logiciel approprié.
Selon ce protocole, l'effet des composés polyhydroxylés a été analysé pour l'activité d'inhibition de l'adhésion de S. aureus sur le support solide. Le xylitol à une concentration finale de 0,5% et le sucrostéarate HLB 16 (sucrose monostéarate, SURFHOPE C18-C16) à une concentration finale de 1% ont été testés. Tableau 1 : Effets du xylitol (0,5%) et du sucrostéarate HLB 16 (1%) sur l'adhésion de S. aureus à la surface des lames de verre. Les résultats correspondent à une moyenne du comptage de trois champs, qui est présentée avec l'écart type correspondant.

Compound	effet sur l'adhésion de S. aureus sur les cornéocytes (S. aureus; final concentration 0,1%)	Inhibition de l'adhésion de S. aureus (%) Essai 1 (S. aureus; final concentration 0,1%)	activité inhibitrice (adhésion de S. aureus sur les cornéocytes) (S. aureus; final concentration 1%) [%]	Inhibition de l'adhésion de S. aureus (%) Essai 1 (S. aureus; final concentration 1%)	other results
monostéarate de sorbitan polyoxyethylène 20 [Polysorbate 60]	résultats très satisfaisants	39,8%	≥ 50	54%	–
sucrose laurate monoester [reference compound]	augmentation significative de l'adhésion	-22.8%	–	–	–
OC[C@@H](O)[C@H](O)[C@@H](O)CO [Xylitol, xylitol, reference compound]	–	–	–	–	Nombre de cellules par champ (Staphylococcus aureus; final concentration 0,5%): 91 ± 6; inhibition de l'adhésion (% par rapport au témoin eau) (Staphylococcus aureus; final concentration 0,5%): 8%; effet inhibiteur sur l'adhésion de S. aureus sur les cornéocytes (S. aureus; final concentration 0,5%): ~20%; Inhibition de l'adhésion de S. aureus (%) Essai 1 (S. aureus; final concentration 0,5%): 21,0%; Inhibition de l'adhésion de S. aureus (%) Essai 2 (S. aureus; final concentration 0,5%): 20,2%
sucrose monostéarate [Sucrostéarate HLB 16]	–	–	≥ 50	57,0%	Nombre de cellules par champ (Staphylococcus aureus; final concentration 1%): 12 ± 1; inhibition de l'adhésion (% par rapport au témoin eau) (Staphylococcus aureus; final concentration 1%): 88%; inhibition de l'adhésion de S. aureus à la surface des lames de verre (Staphylococcus aureus; text conclusion in words, 1%): forte inhibition; Inhibition de l'adhésion de S. aureus (%) Essai 2 (S. aureus; final concentration 1%): 49,6%
monolaurate de sorbitan ethoxylé [Polysorbate 20]	résultats très satisfaisants	57%	–	–	–
